# Laboratory results from US20250344734A1, “UNSATURATED FATTY ACIDS AND THEIR USE TO MODIFY TASTE” (Firmenich Incorporated, priority 2022, published 2025).
# Assays:
# Type in all cases: cell-based
# Conditions in all cases: unsaturated fatty acid concentration of 200 µM, cells stimulated with known bitter agonist
# T2R03 (TAS2R03) = biological target: T1, T2R03 (TAS2R03) (Homo sapiens, UniProt Q9NYW6); experiment: FLIPR calcium assay, block of bitter agonist response, T2R03
# T1 construct: expressed in transfected cells; host or cells: cells expressing a promiscuous G protein (e.g., G16g44)
# T1 sequence (Q9NYW6 1-316): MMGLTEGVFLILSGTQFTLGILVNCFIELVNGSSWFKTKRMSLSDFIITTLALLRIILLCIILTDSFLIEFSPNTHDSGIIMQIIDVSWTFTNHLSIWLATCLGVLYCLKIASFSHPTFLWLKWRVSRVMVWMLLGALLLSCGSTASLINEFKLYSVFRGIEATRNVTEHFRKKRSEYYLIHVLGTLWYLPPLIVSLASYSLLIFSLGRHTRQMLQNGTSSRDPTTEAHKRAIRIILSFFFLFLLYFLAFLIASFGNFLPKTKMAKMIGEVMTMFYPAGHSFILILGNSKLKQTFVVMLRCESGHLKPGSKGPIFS
# Description: (§1) Cells expressing a promiscuous […] (e.g., G16g44) were transfected with vectors encoding 18 functional bitter receptor cDNAs, with one receptor per transfection. The cells were transfected directly in 384-well format high-density plates and incubated for 28 hours. Later, cells were loaded with the Ca-specific dye Fluo4-AM. After an incubation of 60 minutes, excess dye is washed off, and cells are stimulated with a known bitter agonist for each receptor and various unsaturated fatty acids. Changes in intracellular fluorescence are recorded using a FLIPR instrument. Bitter antagonists and corresponding receptors are identified based on percentage inhibition of agonist's activity on a given receptor.
# (§2) The above protocol was carried out using 16 different unsaturated fatty acids. A particular T2R receptor was identified as being antagonized by a particular unsaturated fatty acid if it triggered a >25% block of agonist's cellular response at 200 μM concentration of unsaturated fatty acid. […] Table 2 indicates the sixteen (16) compounds tested by their compound number from Table 1 above. The 18 bitter taste receptors screened are the human bitter taste receptors we named. […]
# T2R63 (TA2R20) = biological target: T2, T2R63 (TA2R20) (Homo sapiens, UniProt P59543); experiment: FLIPR calcium assay, block of bitter agonist response, T2R63
# T2 construct: expressed in transfected cells; host or cells: cells expressing a promiscuous G protein (e.g., G16g44)
# T2 sequence (P59543 1-309): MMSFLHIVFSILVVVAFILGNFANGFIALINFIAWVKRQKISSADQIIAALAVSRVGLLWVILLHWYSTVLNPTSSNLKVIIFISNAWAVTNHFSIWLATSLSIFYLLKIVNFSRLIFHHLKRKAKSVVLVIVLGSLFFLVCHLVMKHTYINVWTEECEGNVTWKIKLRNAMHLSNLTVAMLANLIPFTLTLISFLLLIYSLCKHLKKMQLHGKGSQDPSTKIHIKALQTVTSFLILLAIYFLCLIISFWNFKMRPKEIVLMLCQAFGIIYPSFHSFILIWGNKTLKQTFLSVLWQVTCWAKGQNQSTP
# Description: as §1, §2
# T2R04 (TAS2R04) = biological target: T3, T2R04 (TAS2R04) (Homo sapiens, UniProt Q9NYW5); experiment: FLIPR calcium assay, block of bitter agonist response, T2R04
# T3 construct: expressed in transfected cells; host or cells: cells expressing a promiscuous G protein (e.g., G16g44)
# T3 sequence (Q9NYW5 1-299): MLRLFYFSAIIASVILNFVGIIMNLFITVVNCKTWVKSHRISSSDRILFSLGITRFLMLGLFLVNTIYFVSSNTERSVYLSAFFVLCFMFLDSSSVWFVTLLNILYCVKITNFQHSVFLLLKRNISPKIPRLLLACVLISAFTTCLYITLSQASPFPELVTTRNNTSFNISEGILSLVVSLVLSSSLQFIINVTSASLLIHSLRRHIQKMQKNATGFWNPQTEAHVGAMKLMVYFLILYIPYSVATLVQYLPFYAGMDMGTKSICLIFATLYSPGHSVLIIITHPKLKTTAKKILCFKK
# Description: as §1, §2
# T2R61 (TAS2R43) = biological target: T4, T2R61 (TAS2R43) (Homo sapiens, UniProt P59537); experiment: FLIPR calcium assay, block of bitter agonist response, T2R61
# T4 construct: expressed in transfected cells; host or cells: cells expressing a promiscuous G protein (e.g., G16g44)
# T4 sequence (P59537 1-309): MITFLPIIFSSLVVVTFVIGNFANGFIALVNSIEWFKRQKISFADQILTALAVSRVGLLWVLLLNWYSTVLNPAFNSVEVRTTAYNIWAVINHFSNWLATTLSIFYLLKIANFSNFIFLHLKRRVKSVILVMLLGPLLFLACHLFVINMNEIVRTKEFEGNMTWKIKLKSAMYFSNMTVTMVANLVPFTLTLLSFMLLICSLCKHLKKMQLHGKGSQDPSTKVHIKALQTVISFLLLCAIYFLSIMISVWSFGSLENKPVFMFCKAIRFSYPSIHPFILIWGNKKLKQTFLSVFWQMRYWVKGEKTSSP
# Description: as §1, §2
# T2R16 (TAS2R16) = biological target: T5, T2R16 (TAS2R16) (Homo sapiens, UniProt Q9NYV7); experiment: FLIPR calcium assay, block of bitter agonist response, T2R16
# T5 construct: expressed in transfected cells; host or cells: cells expressing a promiscuous G protein (e.g., G16g44)
# T5 sequence (Q9NYV7 1-291): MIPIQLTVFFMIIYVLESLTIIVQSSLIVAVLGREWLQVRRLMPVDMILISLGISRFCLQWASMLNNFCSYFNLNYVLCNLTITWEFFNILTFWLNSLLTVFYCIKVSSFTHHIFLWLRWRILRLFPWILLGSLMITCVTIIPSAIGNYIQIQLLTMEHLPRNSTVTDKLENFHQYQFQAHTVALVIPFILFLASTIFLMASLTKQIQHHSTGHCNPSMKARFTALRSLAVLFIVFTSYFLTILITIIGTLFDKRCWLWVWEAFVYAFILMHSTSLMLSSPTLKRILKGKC
# Description: as §1, §2
# T2R13 (TAS2R13) = biological target: T6, T2R13 (TAS2R13) (Homo sapiens, UniProt Q9NYV9); experiment: FLIPR calcium assay, block of bitter agonist response, T2R13
# T6 construct: expressed in transfected cells; host or cells: cells expressing a promiscuous G protein (e.g., G16g44)
# T6 sequence (Q9NYV9 1-303): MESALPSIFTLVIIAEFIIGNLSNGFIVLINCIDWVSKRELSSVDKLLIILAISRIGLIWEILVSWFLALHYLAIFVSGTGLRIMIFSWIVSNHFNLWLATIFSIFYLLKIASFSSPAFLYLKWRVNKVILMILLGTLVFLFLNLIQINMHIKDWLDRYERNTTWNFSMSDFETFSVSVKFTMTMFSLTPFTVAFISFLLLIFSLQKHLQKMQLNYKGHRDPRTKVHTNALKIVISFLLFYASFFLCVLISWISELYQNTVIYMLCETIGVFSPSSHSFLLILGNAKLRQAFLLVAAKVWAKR
# Description: as §1, §2
# T2R67 (TAS2R50) = biological target: T7, T2R67 (TAS2R50) (Homo sapiens, UniProt P59544); experiment: FLIPR calcium assay, block of bitter agonist response, T2R67
# T7 construct: expressed in transfected cells; host or cells: cells expressing a promiscuous G protein (e.g., G16g44)
# T7 sequence (P59544 1-299): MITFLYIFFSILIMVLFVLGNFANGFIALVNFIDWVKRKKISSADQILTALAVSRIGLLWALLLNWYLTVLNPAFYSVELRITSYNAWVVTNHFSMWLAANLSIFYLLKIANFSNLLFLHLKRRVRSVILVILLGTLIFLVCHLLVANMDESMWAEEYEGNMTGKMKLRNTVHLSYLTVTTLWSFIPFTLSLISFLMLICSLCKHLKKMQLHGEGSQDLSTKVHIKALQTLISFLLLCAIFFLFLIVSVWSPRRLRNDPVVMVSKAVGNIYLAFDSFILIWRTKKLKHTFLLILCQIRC
# Description: as §1, §2
# T2R71 (TAS2R41) = biological target: T8, T2R71 (TAS2R41) (Homo sapiens, UniProt P59536); experiment: FLIPR calcium assay, block of bitter agonist response, T2R71
# T8 construct: expressed in transfected cells; host or cells: cells expressing a promiscuous G protein (e.g., G16g44)
# T8 sequence (P59536 1-307): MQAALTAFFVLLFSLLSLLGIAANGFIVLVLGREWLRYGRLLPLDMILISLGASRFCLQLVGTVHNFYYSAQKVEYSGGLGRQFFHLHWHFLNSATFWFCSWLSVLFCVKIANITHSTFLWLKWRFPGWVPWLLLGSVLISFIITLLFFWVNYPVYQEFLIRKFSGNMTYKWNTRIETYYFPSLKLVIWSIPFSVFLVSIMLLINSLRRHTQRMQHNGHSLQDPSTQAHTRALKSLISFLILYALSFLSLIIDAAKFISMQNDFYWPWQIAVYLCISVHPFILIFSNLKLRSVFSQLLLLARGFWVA
# Description: as §1, §2
compound,measurement,setting,value
CCCCC/C=C/C(=O)O [Compound 103],"percentage block of cellular response over baseline, 03",T2R03 (TAS2R03),>30%
same,"percentage block of cellular response over baseline, 63",T2R63 (TA2R20),30%
same,"percentage block of cellular response over baseline, 04",T2R04 (TAS2R04),>99%
same,"percentage block of cellular response over baseline, 61",T2R61 (TAS2R43),>85%
same,"percentage block of cellular response over baseline, 16",T2R16 (TAS2R16),>25%
same,"percentage block of cellular response over baseline, 13",T2R13 (TAS2R13),>30%
same,"percentage block of cellular response over baseline, 67",T2R67 (TAS2R50),30%
same,"percentage block of cellular response over baseline, 71",T2R71 (TAS2R41),>30%
